ChEMBL document CHEMBL1201862, “PubChem BioAssay data set” (2004)
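1) Cells in 96-well plates. 2) Compound, 48 h, 5 concentrations. 3) Linear interpolation between surrounding doses. 4) Unreached endpoint = highest concentration. GI50 is the concentration that inhibits growth by half.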 Active and inactive are the calls of the source. No stated cut-off is given here; in the data, active = GI50 up to about 1.1 µM and inactive = higher.

What was measured:
Assay in all cases: NCI tumour cell line growth inhibition, 48 h
[1] = system: COLO 205
[2] = system: OVCAR-3
[3] = system: HOP-62
[4] = system: K562
[5] = system: HOP-92
[6] = system: OVCAR-4
[7] = system: ACHN
[8] = system: NCI-H522
[9] = system: SF-268
[10] = system: SNB-75
[11] = system: UO-31
[12] = system: IGROV-1
[13] = system: 786-0
[14] = system: SNB-19
[15] = system: UACC-62
[16] = system: HCT-116
[17] = system: SNB-78
[18] = system: KM12

Measured: GI50

O=C(Nc1ccc(C(F)(F)F)cc1[N+](=O)[O-])C(=O)C1NC(=S)NC1=O (stereo unspecified)
inactive: [1] 13.5 µM | [2] > 100 µM | [3] > 100 µM | [4] > 100 µM | [5] 43.7 µM | [6] > 100 µM | [7] > 100 µM | [8] > 100 µM | [9] > 100 µM | [10] 26.6 µM | [11] > 100 µM | [12] > 100 µM | [13] > 100 µM | [14] > 100 µM | [15] > 100 µM | [16] > 100 µM | [17] > 100 µM | [18] > 100 µM

COc1cccc(C2=NC(C(C)C)CO2)c1OC (stereo unspecified)
inactive: [1] > 100 µM | [2] > 100 µM | [3] > 100 µM | [4] > 100 µM | [5] > 100 µM | [6] > 100 µM | [7] > 100 µM | [8] > 100 µM | [9] > 100 µM | [10] > 100 µM | [11] > 100 µM | [12] > 100 µM | [13] > 100 µM | [14] > 100 µM | [15] > 100 µM | [17] > 100 µM | [18] > 100 µM

Cn1cc2ccccc2c1-c1nc(F)nc(Oc2ccc3c(c2)CC[C@@H]2C3CC[C@@]3(C)C2C[C@H](O)[C@@H]3O)n1 (stereo partly specified)
inactive: [1] 17.7 µM | [2] 20.7 µM | [3] 4.45 µM | [4] 18.7 µM | [5] 22.3 µM | [7] 20.2 µM | [8] 11.8 µM | [9] 13.1 µM | [10] 20.5 µM | [11] 16.4 µM | [12] 20.7 µM | [13] 16.4 µM | [14] 13.8 µM | [15] 17.5 µM | [16] 14.3 µM | [17] 19.6 µM | [18] 17.7 µM

C[N+](C)(C)CC(=O)N/N=C(\C(=O)NC1=C(Cl)C(=O)c2ccccc2C1=O)C(C#N)c1csc(-c2ccc([N+](=O)[O-])cc2)n1 (stereo unspecified)
inactive: [1] > 100 µM | [2] > 100 µM | [3] > 100 µM | [4] > 100 µM | [5] > 100 µM | [6] > 100 µM | [7] > 100 µM | [8] > 100 µM | [9] > 100 µM | [10] > 100 µM | [11] > 100 µM | [12] > 100 µM | [13] > 100 µM | [14] > 100 µM | [15] > 100 µM | [16] > 100 µM | [17] > 100 µM | [18] > 100 µM

CN1C(=O)CSC1=S [3-METHYL-RHODANINE]
inactive: [1] > 100 µM | [2] > 100 µM | [3] > 100 µM | [4] > 100 µM | [5] > 100 µM | [6] > 100 µM | [7] > 100 µM | [8] > 100 µM | [9] > 100 µM | [10] > 100 µM | [11] > 100 µM | [12] > 100 µM | [13] > 100 µM | [15] > 100 µM | [16] > 100 µM | [17] > 100 µM | [18] > 100 µM

COc1ccccc1OCc1nnc(SCC(=O)O)n1-c1ccccc1
inactive: [1] > 100 µM | [2] > 100 µM | [3] > 100 µM | [5] > 100 µM | [6] > 100 µM | [7] > 100 µM | [8] > 100 µM | [9] > 100 µM | [10] > 100 µM | [11] > 100 µM | [12] > 100 µM | [13] > 100 µM | [15] > 100 µM | [16] > 100 µM | [17] > 100 µM | [18] > 100 µM

CCOC(=O)CC(NCc1ccc(/N=C/c2nc3ccc(C(F)(F)F)cc3nc2-c2ccccc2)cc1)C(=O)OCC (stereo unspecified)
inactive: [1] > 100 µM | [2] > 100 µM | [3] 29 µM | [4] > 100 µM | [5] > 100 µM | [6] > 100 µM | [7] > 58.6 µM | [8] > 100 µM | [9] > 100 µM | [10] 12.1 µM | [11] > 100 µM | [12] > 63.1 µM | [13] 15.3 µM | [14] 27.9 µM | [15] 13.7 µM | [16] > 55.5 µM | [17] > 72.1 µM | [18] > 100 µM
